Reference: patent publication US7544204B2, “Control of halitosis-generating and other microorganisms in the non-dental upper respiratory tract” (Valam Corporation, priority 2003, dated 2009)
Like-named read-outs stand apart in the source and are kept apart here.

What was measured:
P. gingivalis ATCC 33277 = test: Lethal photosensitization of P. Gingivalis, colony count; assay type: cell-based, Porphyromonas Gingivalis
Method: • Suitable stain dosages for providing lethal sensitization of oral pathogens are determined in vitro by the following procedure. An objective is to determine the minimum duration of light exposure and minimum agent dilution required to achieve at least a 50% reduction in bacteria counts. Experimental tests are performed on two common pathogens using a continuously working, high intensity, red filtered halogen lamp. Red light from the filtered halogen lamp is transmitted through a flexible light guide to radiate downwardly onto petri dishes containing samples of live bacteria of species Porphyromonas Gingivalis and Prevotella Intermedia using the protocols described below. • Bacteria. Prevoltella Intermedia is isolated from patient sample material, identified in the laboratory using standard diagnostic test systems (Remel Inc., Lenexa, Kans., USA) and is maintained by twice-weekly subculture in thioglycollate medium (Becton Dickinson and Co, Sparks, Md., USA). P. gingivalis ATCC 33277 obtained from Remel Inc., is maintained by a twice-weekly subculture on CDC anaerobe blood agar (Becton Dickinson and Co, USA) and in thioglycollate medium (Becton Dickinson and Co, USA). • Light Source. […] The light output power density measured at 3 cm distance from the end of the light guide with filter is about 50 milliwatts/cm2. • Photosensitizer. […]

Staphylococcus Aureus = settings: micromolar concentrations; gram positive (Staph aureus); illuminated in light box; cited from earlier work
Candida albicans = settings: methylene blue 450 and 500 microgram/mL; diode laser 664 nm, 275 J/cm fiber length, 400 mW, 687.5 seconds; immunosuppressed murine model; cited from earlier work
[1] = tested on: Porphyromonas Gingivalis and Prevotella Intermedia; settings: for bactericidal effect without light exposure: methylene blue 0.075% and 0.1%, no red halogen light
Escherichia Coli = settings: micromolar concentrations; gram negative (E. Coli); illuminated in light box; cited from earlier work

Row | SMILES | bacterial killing without light exposure (P. gingivalis ATCC 33277; methylene blue 0.01%, without light exposure, P.gingivalis culture) | bactericidal effect on P.gingivalis (P. gingivalis ATCC 33277; methylene blue 0.1%) | bacterial cell death by phototoxicity (Staphylococcus Aureus) | eradication of Candida albicans (Candida albicans) | killing with duration of red-filtered light exposure ([1]; 1, 5 and 10 min with methylene blue 0.05%, 5 and 10 min with methylene blue 0.025%) | reduction in bacteria counts ([1]; light 5 min with methylene blue 0.025%, light 1 min with methylene blue 0.05% and higher) | killing of bacteria without halogen light ([1]; methylene blue 0.001% or 0.025%, without halogen light) | bactericidal effect in combination with red-filtered high-intensity light ([1]; methylene blue 0.01% or higher, exposure less than 10 minutes, accumulated energy 30 J/cm^2, both species) | survival rate (bacterial colony count) ([1]; methylene blue 0.05% and higher, red light exposure 10 or 20 minutes) | reduction of bacteria, methylene blue alone ([1]; methylene blue 0.05%, without exposure to light) | bactericidal effect without light exposure [1] | bactericidal effect without light exposure ([1]; listed as Methylene blue) | bacterial cell death by phototoxicity (Escherichia Coli)
1 | CN(C)c1ccc2nc3ccc(=[N+](C)C)cc-3sc2c1 [methylene blue] | statistically significant bacterial killing | bactericidal effect | bacterial cell death | totally eradicate | statistically significant increased killing with duration | Significant reduction in bacteria counts | nor concentrations of methylene blue of 0.001% or 0.025%, without halogen light, appeared to be effective in killing bacteria | bactericidal effect | ≤ 50% | insignificant | significantly bactericidal | significant bactericidal effect | bacterial cell death
2 | Cc1cc2nc3ccc(N(C)C)cc3[s+]c2cc1N.[Cl-] [toluidine blue O] | – | – | bacterial cell death | – | – | – | – | – | – | – | – | – | bacterial cell death
